# Where two headings read alike, the source gives them in different places.
# Key:
# All CPPA (n = 26) = test: MIC distribution over clinical isolates; assay type: cell-based, P. aeruginosa; conditions: Pseudomonas aeruginosa; for inhibition at 4 µg/mL: read-out: Cumulative % inhibition by ATM, 5 at 4 mg/L; for inhibition at 8 µg/mL: read-out: Cumulative % inhibition by ATM, 5 at 8 mg/L; for inhibition at 16 µg/mL: read-out: Cumulative % inhibition by ATM, 5 at 16 mg/L; for inhibition at 32 µg/mL: read-out: Cumulative % inhibition by ATM, 5 at 32 mg/L; for inhibition at 64 µg/mL: read-out: Cumulative % inhibition by ATM, 5 at 64 mg/L
# [1] = system: ATM-Resistant CPPA (n = 15); test: MIC distribution over clinical isolates; assay type: cell-based, P. aeruginosa; conditions: for inhibition at 1 µg/mL / inhibition at 2 µg/mL / inhibition at 4 µg/mL / inhibition at 8 µg/mL / inhibition at 16 µg/mL / inhibition at 32 µg/mL / inhibition at 64 µg/mL / MIC50 / MIC90: Pseudomonas aeruginosa; for inhibition at 1 µg/mL: read-out: Cumulative % inhibition by ATM, 5 at 1 mg/L; for inhibition at 2 µg/mL: read-out: Cumulative % inhibition by ATM, 5 at 2 mg/L; for inhibition at 4 µg/mL: read-out: Cumulative % inhibition by ATM, 5 at 4 mg/L; for inhibition at 8 µg/mL: read-out: Cumulative % inhibition by ATM, 5 at 8 mg/L; for inhibition at 16 µg/mL: read-out: Cumulative % inhibition by ATM, 5 at 16 mg/L; for inhibition at 32 µg/mL: read-out: Cumulative % inhibition by ATM, 5 at 32 mg/L; for inhibition at 64 µg/mL: read-out: Cumulative % inhibition by ATM, 5 at 64 mg/L
# [2] = read-out: MIC50 of ATM, 5 at 1 mg/L
# [3] = read-out: MIC50 of ATM, 5 at 2 mg/L
# [4] = read-out: MIC50 of ATM, 5 at 4 mg/L
# [5] = read-out: MIC50 of ATM, 5 at 8 mg/L
# [6] = read-out: MIC50 of ATM, 5 at 16 mg/L
# [7] = read-out: MIC50 of ATM, 5 at 32 mg/L
# [8] = read-out: MIC50 of ATM, 5 at 64 mg/L
# [9] = read-out: MIC90 of ATM, 5 at 1 mg/L
# [10] = read-out: MIC90 of ATM, 5 at 2 mg/L
# [11] = read-out: MIC90 of ATM, 5 at 4 mg/L
# [12] = read-out: MIC90 of ATM, 5 at 8 mg/L
# [13] = read-out: MIC90 of ATM, 5 at 16 mg/L
# [14] = read-out: MIC90 of ATM, 5 at 32 mg/L
# [15] = read-out: MIC90 of ATM, 5 at 64 mg/L
smiles,measurement,setting,value
"CC(C)(C)CCOc1c(-c2ccc(F)c(F)c2)oc2cc(OCC(=O)O)cc(O)c2c1=O [Compound 5, 2-((2-(3,4-Difluorophenyl)-3-(3,3-dimethylbutoxy)-5-hydroxy-4-oxo-4H-chromen-7-yl)oxy)acetic Acid]",inhibition at 4 µg/mL,All CPPA (n = 26); ATM 8 mg/L,81%
same,inhibition at 4 µg/mL,All CPPA (n = 26); ATM 16 mg/L,100%
same,inhibition at 4 µg/mL,All CPPA (n = 26); ATM 32 mg/L,100%
same,inhibition at 4 µg/mL,All CPPA (n = 26); ATM 64 mg/L,100%
same,inhibition at 8 µg/mL,All CPPA (n = 26); ATM 0.5 mg/L,4%
same,inhibition at 8 µg/mL,All CPPA (n = 26); ATM 1 mg/L,19%
same,inhibition at 8 µg/mL,All CPPA (n = 26); ATM 2 mg/L,38%
same,inhibition at 8 µg/mL,All CPPA (n = 26); ATM 4 mg/L,69%
same,inhibition at 8 µg/mL,All CPPA (n = 26); ATM 8 mg/L,88%
same,inhibition at 8 µg/mL,All CPPA (n = 26); ATM 16 mg/L,100%
same,inhibition at 8 µg/mL,All CPPA (n = 26); ATM 32 mg/L,100%
same,inhibition at 8 µg/mL,All CPPA (n = 26); ATM 64 mg/L,100%
same,inhibition at 16 µg/mL,All CPPA (n = 26); ATM 0.5 mg/L,4%
same,inhibition at 16 µg/mL,All CPPA (n = 26); ATM 1 mg/L,27%
same,inhibition at 16 µg/mL,All CPPA (n = 26); ATM 2 mg/L,50%
same,inhibition at 16 µg/mL,All CPPA (n = 26); ATM 4 mg/L,81%
same,inhibition at 16 µg/mL,All CPPA (n = 26); ATM 8 mg/L,96%
same,inhibition at 16 µg/mL,All CPPA (n = 26); ATM 16 mg/L,100%
same,inhibition at 16 µg/mL,All CPPA (n = 26); ATM 32 mg/L,100%
same,inhibition at 16 µg/mL,All CPPA (n = 26); ATM 64 mg/L,100%
same,inhibition at 32 µg/mL,All CPPA (n = 26); ATM 0.5 mg/L,4%
same,inhibition at 32 µg/mL,All CPPA (n = 26); ATM 1 mg/L,35%
same,inhibition at 32 µg/mL,All CPPA (n = 26); ATM 2 mg/L,54%
same,inhibition at 32 µg/mL,All CPPA (n = 26); ATM 4 mg/L,88%
same,inhibition at 32 µg/mL,All CPPA (n = 26); ATM 8 mg/L,96%
same,inhibition at 32 µg/mL,All CPPA (n = 26); ATM 16 mg/L,100%
same,inhibition at 32 µg/mL,All CPPA (n = 26); ATM 32 mg/L,100%
same,inhibition at 32 µg/mL,All CPPA (n = 26); ATM 64 mg/L,100%
same,inhibition at 64 µg/mL,All CPPA (n = 26); ATM 0.5 mg/L,4%
same,inhibition at 64 µg/mL,All CPPA (n = 26); ATM 1 mg/L,38%
same,inhibition at 64 µg/mL,All CPPA (n = 26); ATM 2 mg/L,58%
same,inhibition at 64 µg/mL,All CPPA (n = 26); ATM 4 mg/L,92%
same,inhibition at 64 µg/mL,All CPPA (n = 26); ATM 8 mg/L,96%
same,inhibition at 64 µg/mL,All CPPA (n = 26); ATM 16 mg/L,100%
same,inhibition at 64 µg/mL,All CPPA (n = 26); ATM 32 mg/L,100%
same,inhibition at 64 µg/mL,All CPPA (n = 26); ATM 64 mg/L,100%
same,MIC50,All CPPA (n = 26); [2],16 µg/mL
same,MIC50,All CPPA (n = 26); [3],16 µg/mL
same,MIC50,All CPPA (n = 26); [4],8 µg/mL
same,MIC50,All CPPA (n = 26); [5],4 µg/mL
same,MIC50,All CPPA (n = 26); [6],4 µg/mL
same,MIC50,All CPPA (n = 26); [7],2 µg/mL
same,MIC50,All CPPA (n = 26); [8],2 µg/mL
same,MIC90,All CPPA (n = 26); [9],32 µg/mL
same,MIC90,All CPPA (n = 26); [10],32 µg/mL
same,MIC90,All CPPA (n = 26); [11],16 µg/mL
same,MIC90,All CPPA (n = 26); [12],16 µg/mL
same,MIC90,All CPPA (n = 26); [13],8 µg/mL
same,MIC90,All CPPA (n = 26); [14],8 µg/mL
same,MIC90,All CPPA (n = 26); [15],8 µg/mL
same,ATM-non-susceptible pathogens (MIC ≥ 16 mg/L) converted into sensitive ones by combination with 5,[1],14 out of 15
same,inhibition at 1 µg/mL,[1]; ATM 0.5 mg/L,0%
same,inhibition at 1 µg/mL,[1]; ATM 1 mg/L,0%
same,inhibition at 1 µg/mL,[1]; ATM 2 mg/L,0%
same,inhibition at 1 µg/mL,[1]; ATM 4 mg/L,0%
same,inhibition at 1 µg/mL,[1]; ATM 8 mg/L,7%
same,inhibition at 1 µg/mL,[1]; ATM 16 mg/L,67%
same,inhibition at 1 µg/mL,[1]; ATM 32 mg/L,100%
same,inhibition at 1 µg/mL,[1]; ATM 64 mg/L,100%
same,inhibition at 2 µg/mL,[1]; ATM 0.5 mg/L,0%
same,inhibition at 2 µg/mL,[1]; ATM 1 mg/L,0%
same,inhibition at 2 µg/mL,[1]; ATM 2 mg/L,0%
same,inhibition at 2 µg/mL,[1]; ATM 4 mg/L,0%
same,inhibition at 2 µg/mL,[1]; ATM 8 mg/L,7%
same,inhibition at 2 µg/mL,[1]; ATM 16 mg/L,87%
same,inhibition at 2 µg/mL,[1]; ATM 32 mg/L,100%
same,inhibition at 2 µg/mL,[1]; ATM 64 mg/L,100%
same,inhibition at 4 µg/mL,[1]; ATM 0.5 mg/L,0%
same,inhibition at 4 µg/mL,[1]; ATM 1 mg/L,0%
same,inhibition at 4 µg/mL,[1]; ATM 2 mg/L,0%
same,inhibition at 4 µg/mL,[1]; ATM 4 mg/L,7%
same,inhibition at 4 µg/mL,[1]; ATM 8 mg/L,67%
same,inhibition at 4 µg/mL,[1]; ATM 16 mg/L,100%
same,inhibition at 4 µg/mL,[1]; ATM 32 mg/L,100%
same,inhibition at 4 µg/mL,[1]; ATM 64 mg/L,100%
same,inhibition at 8 µg/mL,[1]; ATM 0.5 mg/L,0%
same,inhibition at 8 µg/mL,[1]; ATM 1 mg/L,0%
same,inhibition at 8 µg/mL,[1]; ATM 2 mg/L,0%
same,inhibition at 8 µg/mL,[1]; ATM 4 mg/L,47%
same,inhibition at 8 µg/mL,[1]; ATM 8 mg/L,80%
same,inhibition at 8 µg/mL,[1]; ATM 16 mg/L,100%
same,inhibition at 8 µg/mL,[1]; ATM 32 mg/L,100%
same,inhibition at 8 µg/mL,[1]; ATM 64 mg/L,100%
same,inhibition at 16 µg/mL,[1]; ATM 0.5 mg/L,0%
same,inhibition at 16 µg/mL,[1]; ATM 1 mg/L,0%
same,inhibition at 16 µg/mL,[1]; ATM 2 mg/L,13%
same,inhibition at 16 µg/mL,[1]; ATM 4 mg/L,67%
same,inhibition at 16 µg/mL,[1]; ATM 8 mg/L,93%
same,inhibition at 16 µg/mL,[1]; ATM 16 mg/L,100%
same,inhibition at 16 µg/mL,[1]; ATM 32 mg/L,100%
same,inhibition at 16 µg/mL,[1]; ATM 64 mg/L,100%
same,inhibition at 32 µg/mL,[1]; ATM 0.5 mg/L,0%
same,inhibition at 32 µg/mL,[1]; ATM 1 mg/L,0%
same,inhibition at 32 µg/mL,[1]; ATM 2 mg/L,20%
same,inhibition at 32 µg/mL,[1]; ATM 4 mg/L,80%
same,inhibition at 32 µg/mL,[1]; ATM 8 mg/L,93%
same,inhibition at 32 µg/mL,[1]; ATM 16 mg/L,100%
same,inhibition at 32 µg/mL,[1]; ATM 32 mg/L,100%
same,inhibition at 32 µg/mL,[1]; ATM 64 mg/L,100%
same,inhibition at 64 µg/mL,[1]; ATM 0.5 mg/L,0%
same,inhibition at 64 µg/mL,[1]; ATM 1 mg/L,7%
same,inhibition at 64 µg/mL,[1]; ATM 2 mg/L,27%
same,inhibition at 64 µg/mL,[1]; ATM 4 mg/L,87%
same,inhibition at 64 µg/mL,[1]; ATM 8 mg/L,93%
same,inhibition at 64 µg/mL,[1]; ATM 16 mg/L,100%
same,inhibition at 64 µg/mL,[1]; ATM 32 mg/L,100%
same,inhibition at 64 µg/mL,[1]; ATM 64 mg/L,100%
same,MIC50,[1]; [2],16 µg/mL
same,MIC50,[1]; [3],16 µg/mL
same,MIC50,[1]; [4],8 µg/mL
same,MIC50,[1]; [5],8 µg/mL
same,MIC50,[1]; [6],4 µg/mL
same,MIC50,[1]; [7],4 µg/mL
same,MIC50,[1]; [8],4 µg/mL
same,MIC90,[1]; [9],32 µg/mL
same,MIC90,[1]; [10],32 µg/mL
same,MIC90,[1]; [11],16 µg/mL
same,MIC90,[1]; [12],16 µg/mL
same,MIC90,[1]; [13],16 µg/mL
same,MIC90,[1]; [14],16 µg/mL
same,MIC90,[1]; [15],16 µg/mL
